These results are taken from patent publication US20170100374A1, “POTENTIATOR-CORRECTOR COMBINATIONS USEFUL IN THE TREATMENT OF CYSTIC FIBROSIS” (AbbVie S.à.r.l., priority 2015, published 2017).

In assay [1] the target is T1, HEK293 wild type CFTR membrane fractions (Homo sapiens, UniProt P13569).
T1 construct: expressed in transfected cells; host or cells: HEK293 (membrane fractions)
The assay is described as follows: Back-Scattering Interferometry (Molecular Sensing) binding to CFTR membrane fractions. On the procedure: TruBind™ Back-Scattering Interferometry (BSI) (Molecular Sensing GmbH) can be used to determine binding constants of different compounds to CFTR-expressing cells.
HEK293 wild type CFTR and HEK293 control membrane fractions are used as 100 μg (total protein amount) aliquots in 50 mM Tris-HCl pH 7.5, 1 mM EDTA, 10% Glycerol+PIC and stored at −80° C.
The buffer used for the assays is 50 mM Tris-HCl pH 7.5, 1 mM EDTA with 1.2% DMSO. The refractive index of the assay buffer and the compound are matched and then a 2x serial dilution is done in polypropylene dilution reservoirs.
A thawed aliquot of HEK293.CFTRwt as well as a thawed aliquot of HEK293 control membrane fractions is diluted to 10 mL in 50 mM Tris-HCl pH 7.5, 1 mM EDTA with 1.2% DMSO. The refractive index of the assay buffer and the two membrane fractions are matched by adding water to the membrane fractions.
Compound and target are mixed 1:1 in 96-well PCR microtiter plates to a final volume of 150 μL and heat sealed with foil. The assays are allowed to incubate at room temperature for 4 hours before being run on the BSI instrument. Wells are pierced individually prior to sample injection and measurement of BSI signal (each well is analyzed in quadruplicates). […]
The final data for the difference curve is exported to Graphpad Prism® and analyzed using a one-site binding equation to determine a Kd for the assay. […]

In assay [2] the target is T2, F508del-CFTR (Homo sapiens, UniProt P13569, DEL508-508).
T2 construct: host or cells: CF patients
Conditions: patients having F508del-CFTR class II mutation (Flume et al., 2012); cited from earlier work.

Assay [3] concerns CFTR. Conditions: patients with CF (Wilschanski et al., 2003); cited from earlier work.

T1 sequence (P13569 whole entry): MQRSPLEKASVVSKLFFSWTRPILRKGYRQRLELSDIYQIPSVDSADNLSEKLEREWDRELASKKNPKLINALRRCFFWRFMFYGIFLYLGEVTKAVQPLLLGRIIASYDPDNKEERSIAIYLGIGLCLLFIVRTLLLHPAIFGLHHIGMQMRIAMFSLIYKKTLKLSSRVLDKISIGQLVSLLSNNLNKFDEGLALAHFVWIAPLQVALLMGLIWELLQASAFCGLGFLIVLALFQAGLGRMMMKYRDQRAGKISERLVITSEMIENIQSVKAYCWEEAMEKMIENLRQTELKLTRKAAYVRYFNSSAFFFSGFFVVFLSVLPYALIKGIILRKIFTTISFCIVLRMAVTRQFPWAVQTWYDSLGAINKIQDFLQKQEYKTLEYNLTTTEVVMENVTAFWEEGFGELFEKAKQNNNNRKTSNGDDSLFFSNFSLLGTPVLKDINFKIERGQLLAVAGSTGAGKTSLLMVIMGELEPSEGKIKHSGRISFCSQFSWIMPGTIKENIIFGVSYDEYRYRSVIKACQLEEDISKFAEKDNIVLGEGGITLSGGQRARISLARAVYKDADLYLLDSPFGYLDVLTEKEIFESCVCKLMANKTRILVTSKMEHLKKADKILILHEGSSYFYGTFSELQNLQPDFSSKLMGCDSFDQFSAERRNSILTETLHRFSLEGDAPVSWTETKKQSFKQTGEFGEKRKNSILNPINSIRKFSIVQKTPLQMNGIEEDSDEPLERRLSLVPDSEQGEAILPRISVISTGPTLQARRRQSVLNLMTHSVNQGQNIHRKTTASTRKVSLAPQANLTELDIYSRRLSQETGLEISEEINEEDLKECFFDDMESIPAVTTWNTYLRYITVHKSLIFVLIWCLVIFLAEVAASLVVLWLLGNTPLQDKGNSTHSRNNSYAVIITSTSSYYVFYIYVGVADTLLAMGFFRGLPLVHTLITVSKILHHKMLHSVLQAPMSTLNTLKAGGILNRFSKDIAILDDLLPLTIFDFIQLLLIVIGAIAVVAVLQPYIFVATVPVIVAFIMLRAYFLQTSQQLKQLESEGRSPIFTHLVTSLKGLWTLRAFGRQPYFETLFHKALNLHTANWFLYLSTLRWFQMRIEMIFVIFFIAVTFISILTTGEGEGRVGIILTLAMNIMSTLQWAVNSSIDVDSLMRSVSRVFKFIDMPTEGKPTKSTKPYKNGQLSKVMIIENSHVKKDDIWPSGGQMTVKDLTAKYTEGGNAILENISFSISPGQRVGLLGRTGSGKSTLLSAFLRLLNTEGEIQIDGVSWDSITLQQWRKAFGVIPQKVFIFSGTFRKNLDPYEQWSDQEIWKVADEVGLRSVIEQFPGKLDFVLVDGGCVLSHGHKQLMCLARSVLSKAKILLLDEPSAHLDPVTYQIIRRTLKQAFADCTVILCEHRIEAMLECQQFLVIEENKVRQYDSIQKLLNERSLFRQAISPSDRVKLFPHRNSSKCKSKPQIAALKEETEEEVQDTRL
T2 sequence (P13569 with tags, fused parts or gaps DEL508-508): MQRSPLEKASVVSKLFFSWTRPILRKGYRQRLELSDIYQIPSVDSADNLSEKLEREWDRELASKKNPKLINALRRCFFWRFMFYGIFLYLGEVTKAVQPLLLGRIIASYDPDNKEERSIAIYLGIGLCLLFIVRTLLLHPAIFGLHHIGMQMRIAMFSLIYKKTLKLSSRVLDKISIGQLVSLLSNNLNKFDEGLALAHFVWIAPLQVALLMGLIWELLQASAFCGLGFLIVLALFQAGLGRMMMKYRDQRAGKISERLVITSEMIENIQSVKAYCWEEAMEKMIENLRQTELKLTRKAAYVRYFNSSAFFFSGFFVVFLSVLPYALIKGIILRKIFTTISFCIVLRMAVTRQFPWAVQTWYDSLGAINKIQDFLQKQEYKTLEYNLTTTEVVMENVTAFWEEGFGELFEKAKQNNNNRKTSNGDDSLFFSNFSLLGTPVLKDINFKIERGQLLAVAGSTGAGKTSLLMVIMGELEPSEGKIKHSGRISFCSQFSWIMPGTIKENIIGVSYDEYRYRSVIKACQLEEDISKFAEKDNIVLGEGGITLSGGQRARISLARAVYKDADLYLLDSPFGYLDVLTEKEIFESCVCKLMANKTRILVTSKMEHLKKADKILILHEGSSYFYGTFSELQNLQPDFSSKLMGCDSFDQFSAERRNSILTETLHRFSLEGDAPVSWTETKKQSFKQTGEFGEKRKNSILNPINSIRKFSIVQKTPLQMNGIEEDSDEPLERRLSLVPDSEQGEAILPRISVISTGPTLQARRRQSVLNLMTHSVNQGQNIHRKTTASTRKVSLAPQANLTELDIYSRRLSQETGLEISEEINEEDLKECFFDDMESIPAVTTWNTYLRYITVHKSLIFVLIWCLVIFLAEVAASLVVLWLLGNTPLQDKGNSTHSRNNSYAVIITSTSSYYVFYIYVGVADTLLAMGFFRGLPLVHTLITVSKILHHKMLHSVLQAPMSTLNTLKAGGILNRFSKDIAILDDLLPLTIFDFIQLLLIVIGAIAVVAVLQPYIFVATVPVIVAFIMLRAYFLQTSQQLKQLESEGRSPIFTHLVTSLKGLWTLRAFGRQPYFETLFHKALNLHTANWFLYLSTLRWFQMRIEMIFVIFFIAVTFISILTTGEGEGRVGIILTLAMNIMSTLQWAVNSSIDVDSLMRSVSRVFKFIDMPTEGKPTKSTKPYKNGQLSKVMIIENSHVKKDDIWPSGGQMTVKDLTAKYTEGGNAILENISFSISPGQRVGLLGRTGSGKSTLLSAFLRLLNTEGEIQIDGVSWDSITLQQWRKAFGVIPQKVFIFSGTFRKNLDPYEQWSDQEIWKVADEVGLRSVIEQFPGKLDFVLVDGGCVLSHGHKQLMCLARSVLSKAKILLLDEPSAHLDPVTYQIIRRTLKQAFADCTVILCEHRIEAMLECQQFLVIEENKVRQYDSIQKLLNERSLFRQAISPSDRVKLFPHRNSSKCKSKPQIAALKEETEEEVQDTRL

Turning to `COc1ccc2c(c1)O[C@@H](c1ccc(C(=O)O)cc1)C[C@H]2NC(=O)C1(c2ccc3c(c2)OC(F)(F)O3)CC1` [C1], in assay [1] (binding to wild-type CFTR membrane fractions, control membrane fractions subtracted, one-site binding fit), the Kd was found to be 94.7 ± 26.5 nM. Also, the “binding affinity to the membrane fraction of CFTR (in words)” value in assay [1] (comment on Table 1) is on record as “binding affinity similar to the known correctors acting on CFTR”. Consider `CC(C)(C)c1cc(C(C)(C)C)c(NC(=O)c2c[nH]c3ccccc3c2=O)cc1O` [VX-770], for which, in assay [2], the “therapeutic efficacy in patients” value was “no significant therapeutic efficacy”. For the molecule gentamicin, the “change in Nasal Potential Difference (NPD) values” in assay [3] is “small changes”.
